In patent US10233142B2, “Metabolites of (1R-trans)-N-[[2-(2,3-dihydro-4-benzofuranyl)cyclopropyl]methyl]propanamide” (Vanda Pharmaceuticals, Inc., priority 2012, dated 2019):

Experiment: 14C-radiolabeled Tasimelteon administered to healthy male subjects; HPLC radio-chromatography of plasma, urine and feces
Type: in vivo, human
Settings: for share of the radioactivity of the administered dose in urine: 0-72 h urine samples; for share of the radioactivity of the administered dose in feces: fecal samples; for feces (0-120 h) (% dose) / plasma (% AUC) / urine (0-72 h) (% dose) / total excreta (% dose): healthy male subjects, 100 μCi/100 mg 14C-Tasimelteon; for plasma (% AUC): plasma 0.5-24 h; for total excreta (% dose): urine plus feces; for share of the total plasma radioactivity: plasma samples
Procedure: ^14C-radiolabeled (1R-trans)-N-[[2-(2,3-dihydro-4-benzofuranyl)cyclopropyl]methyl]propanamide was administered to healthy male subjects at a dosage of 100 μCi/100 mg. Plasma, urine, and fecal samples were then collected from subjects at predetermined time intervals following administration (0.5 h, 1 h, 2 h, 8 h, and 24 h for plasma; 0-6 h, 6-12 h, 12-24 h, and 24-72 h for urine; and 0-24 h, 24-48 h, and 48-120 h for feces). Plasma and fecal samples were subjected to methanol extraction to remove proteins. All samples were centrifuged to remove solids prior to HPLC radio-chromatography. Radioactivity in each fraction was determined by Packard TopCount® NXT™ Microplate Scintillation and Luminescence Counter technology. Selected urine, plasma, and fecal extracts were analyzed by LC/MS, coupled with a radioactivity monitor.
The proportionate presence of (1R-trans)-N-[[2-(2,3-dihydro-4-benzofuranyl)cyclopropyl]methyl]propanamide and the M9 and M11 metabolites in plasma, urine, and feces of the subjects is shown below in Table 1.

Row | Structure (SMILES) | share of the radioactivity of the administered dose in urine | share of the radioactivity of the administered dose in feces | feces (0-120 h) (% dose) | plasma (% AUC) | urine (0-72 h) (% dose) | total excreta (% dose) | share of the total plasma radioactivity
1 | CCC(=O)NC[C@@H]1C[C@H]1c1cccc(O)c1CC(=O)O [M9] | ~30% | minor fecal metabolites | 0.85 % dose | 19.79 | 29.69 % dose | 30.54 % dose | ~20%
2 | CCC(=O)NC[C@@H]1C[C@H]1c1cccc(O)c1CCO [M11] | Neither unchanged Tasimelteon nor metabolite M11 were found |  | not detected | 3.56 | not detected | not detected | approximately 3.5%
3 | CCC(=O)NC[C@@H]1C[C@H]1c1cccc2c1CCO2 [Tasimelteon, (1R-trans)-N-[[2-(2,3-dihydro-4-benzofuranyl)cyclopropyl]methyl]propanamide] | Neither unchanged Tasimelteon nor metabolite M11 were found | minor fecal metabolites | 0.04 % dose | 8.22 | not detected | 0.04 % dose | approximately 8%
